Test results published in US20100137375A1, “Emulsifiable Concentrate” (BASF SE, priority 2005, published 2010).

Assays:
[1] = tested on: Colorado potato beetle (Leptinotarsa decemlineata); experiment: Field trial against Colorado potato beetle in potatoes; type: in vivo; conditions: 60 g AI/HA
Experimental: Performance of EC formulations according to the invention against the Colorado potato beetle (Leptinotarsa decemlineata) in potatoes
The trial was arranged in a randomized complete block design with three replications. Plots were 5 m long and one row (1 m) wide. Applications were conducted with a fournozzle row crop boom delivering side and overhead coverage, at 3-bar pressure and 400 l/ha. Numbers of larvae (L1/2) (L3/4) were recorded per plot at 2, 5 and 14 DAT (day after treatment) and a defoliation assessment was made at 14 DAT. Colorado potato beetle pressure was high resulting in complete defoliation in the controls at 19 DAT.

[2] = tested on: Southern armyworm (Spodoptera eridania), third instar; experiment: Lima bean leaf-dip test against Southern armyworm; type: in vivo
Experimental: Performance of EC formulations according to the invention against Southern armyworm (Spodoptera eridania), third instar
A stock solution of metaflumizone formulation is diluted into a container of water. Lima bean leaves are dipped into treatment solutions and allowed to air-dry. A single treated leaf is placed topside-up onto water-moistened filter paper in multiple plastic petri dishes. Seven larvae are placed onto each leaf and then each arena is sealed with petri dish covers. Each treatment replicated 4-fold (1 replicate=1 petri dish arena). Following treatment application, infested plants are held in the laboratory under fluorescent lighting and constant 26° C. Larval mortality/morbidity (i.e., number dead/number tested) is assessed at 5 days post-treatment. The mortality levels based on number of live larve.

[3] = larval mortality at 5 days post-treatment, Log Dose-Probit analysis

Structure (SMILES): N#Cc1ccc(CC(=NNC(=O)Nc2ccc(OC(F)(F)F)cc2)c2cccc(C(F)(F)F)c2)cc1 [metaflumizone]
- Mean # of L1/L2 per plot ([1]; 2 DAT): .3b
- Mean # of L3/L4 per plot ([1]; 2 DAT): .3b
- Mean # of L1/L2 per plot ([1]; 5 DAT): 4b
- Mean # of L3/L4 per plot ([1]; 5 DAT): 2b
- % Defoliation ([1]; 14 DAT): 18a %
- Mean # of L1/L2 per plot ([1]; 14 DAT): .3a
- Mean # of L3/L4 per plot ([1]; 14 DAT): 7ab
- LC50 [2, 3]: 1.50 ppm
- LC90 [2, 3]: 7.70 ppm
- Biological Enhancement ([2]; relative to metaflumizone dispersed in water (standard control)): 1x (standard control)
